Test results published in ChEMBL document CHEMBL4610069, “Chetocochliodins A-I, Epipoly(thiodioxopiperazines) from Chaetomium cochliodes” (J Nat Prod, 2020).
Active and inactive are the calls of the source. No cut-off for these calls is given here.

Tests used:
Assay type in all cases: functional, cell-based
[1] = system: A549; experiment: Cytotoxicity against human A549 cells by MTT assay
[2] = system: Huh-7; experiment: Cytotoxicity against human HuH7 cells by MTT assay
[3] = system: HeLa; experiment: Cytotoxicity against human HeLa cells by MTT assay
[4] = system: A549; experiment: Cytotoxicity against human A549 cells up to 100 uM by MTT assay
[5] = system: Huh-7; experiment: Cytotoxicity against human HuH7 cells up to 100 uM by MTT assay
[6] = system: HeLa; experiment: Cytotoxicity against human HeLa cells up to 100 uM by MTT assay

Structure (SMILES) | Activity [1] | Activity [2] | Activity [3] | Activity [4] | Activity [5] | Activity [6] | also measured
CO[C@@]1(CO)NC(=O)[C@](Cc2c[nH]c3ccccc23)(SC)NC1=O | inactive | inactive | inactive | – | – | – | –
CO[C@]1(CO)NC(=O)[C@@](Cc2c[nH]c3ccccc23)(OC)NC1=O | – | – | – | inactive | inactive | inactive | –
CN1C(=O)[C@]2(Cc3c[nH]c4ccccc34)SSSS[C@@]1(CO)C(=O)N2C | – | – | – | – | – | – | IC50 [1]: 930 to 2450 nM; IC50 [2]: 930 to 2450 nM; IC50 [3]: 930 to 2450 nM
CO[C@]1(CO)NC(=O)[C@](Cc2c[nH]c3ccccc23)(OC)NC1=O | – | – | – | inactive | inactive | inactive | –
CS[C@]1(CO)NC(=O)[C@](Cc2c[nH]c3ccccc23)(SC)NC1=O | inactive | inactive | inactive | – | – | – | –
CO[C@]1(CO)NC(=O)[C@](Cc2c[nH]c3ccccc23)(SC)NC1=O | inactive | inactive | inactive | – | – | – | –
CO[C@]1(Cc2c[nH]c3ccccc23)NC(=O)[C@H](CO)N(C)C1=O | – | – | – | inactive | inactive | inactive | –
